The values below come from patent US20140350034A1, “Aminopyridine derivatives as plasma kallikrein inhibitors” (NOVARTIS AG, priority 2012, published 2014).

pIC50: −log10 of the molar value.

The target in the first assay is T1, Human plasma kallikrein (Homo sapiens, UniProt P03952).
T1 construct: purchased Kordia (Leiden, Netherlands) batch HPKA 1303
T1 sequence (P03952 391-638 limits assumed): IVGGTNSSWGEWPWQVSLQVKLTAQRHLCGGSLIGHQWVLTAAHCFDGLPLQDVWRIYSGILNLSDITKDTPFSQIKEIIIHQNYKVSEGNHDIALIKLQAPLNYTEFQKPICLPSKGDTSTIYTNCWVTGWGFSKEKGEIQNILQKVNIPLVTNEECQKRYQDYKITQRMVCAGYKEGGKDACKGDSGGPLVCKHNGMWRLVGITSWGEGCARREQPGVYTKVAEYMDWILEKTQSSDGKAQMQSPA
T1 sequence (P03952 20-390 partner limits assumed): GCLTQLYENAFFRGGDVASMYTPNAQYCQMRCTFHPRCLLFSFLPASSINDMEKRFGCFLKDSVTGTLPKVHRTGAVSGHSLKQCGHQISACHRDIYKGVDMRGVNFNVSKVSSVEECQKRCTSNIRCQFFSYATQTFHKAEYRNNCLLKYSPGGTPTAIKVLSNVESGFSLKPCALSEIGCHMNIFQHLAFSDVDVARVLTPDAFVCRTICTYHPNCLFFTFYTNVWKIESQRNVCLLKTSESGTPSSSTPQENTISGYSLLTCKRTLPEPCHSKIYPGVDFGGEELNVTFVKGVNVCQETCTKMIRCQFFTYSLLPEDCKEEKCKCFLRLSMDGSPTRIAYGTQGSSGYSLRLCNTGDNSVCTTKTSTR
Put plainly: In vitro inhibition of plasma kallikrein (fluorogenic substrate DPro-Phe-Arg-(Rh110)-γGlu-OH). It counts as biochemical. Conditions: human plasma kallikrein 12 pM, substrate 0.5 μM, 1 hour pre-incubation at room temperature, read after 1 hour. As for the experimental part: In Vitro Inhibition of Plasma Kallikrein
The fluorogenic substrate DPro-Phe-Arg-(Rh110)-γGlu-OH (where DPro is the amino acid d-proline, Rh110 is the fluorophore rhodamine 110 and γGlu is a […] linked to Rh110 via the gamma-carbonyl function; from Biosyntan, Berlin, Germany), being based on the chromogenic substrate described in Gallimore et al (Thromb Res 25, 293-298, 1982), was dissolved in DMSO at 5 mM and stored at −80° C. All other chemicals were of analytical grade.
Human plasma kallikrein was purchased from Kordia (Leiden, Netherlands, batch HPKA 1303) in lyophilized form.
The protein solution was reconstituted from the lyophilisate by addition of deinonized water. The resulting stock solution comprised the protein at a concentration of 0.17 mg/ml in 4 mM sodium acetate/HCl and 150 mM NaCl at pH 5.3. The stock solution was stored in aliquots at −80° C.
Enzymatic reactions were conducted in ‘assay buffer’, comprising 50 mM Hepes/NaOH at pH 7.8, 150 mM NaCl, 1 mM EDTA and 0.05% (w/v) CHAPS.
Both, enzyme and substrate were diluted in assay buffer.
All protein and peptide containing solutions were handled in siliconized tubes (Life Systems Design, Merenschwand, Switzerland). The compound solutions as well as the enzyme and the substrate solutions were transferred to 384-well plates (black Cliniplate; cat. no. 95040020 Labsystems Oy, Finland) by means of a CyBi-Well 96-channel pipettor (CyBio AG, Jena, Germany). Plate measurements were conducted by the means of a Safire2 reader (TECAN, Maennedorf, Switzerland). The Safire2 is a monochomator-based instrument and wavelengths of 485 nm and 535 nm were taken for fluorescence excitation and emission acquisition, respectively. The bandwidths were set to 10 nm in both the excitation and the emission path. The fluorescence in each well was excited by three flashes per measurement.
Determination of IC50 Values
For the determination of IC50 values, the assays were performed at room temperature in 384-well plates with a total assay volume of 25.25 μl per well.
The test compound was dissolved in 90% (v/v) DMSO/water. For the assays, 250 nL of the 90% (v/v) DMSO/water solution or compound solution were added per well, followed by the addition of 12.5 μl protease solution (protease in assay buffer). The final assay concentration of the human plasma kallikrein was nominally 12 pM, the 11 compound concentrations in the dilution series were in the range form 1 nM to 100 μM. After 1 hour of pre-incubation at room temperature, the reactions were started by the addition of 12.5 μl substrate solution (in assay buffer, final assay concentration was 0.5 μM). After the addition of the substrate solution, the final DMSO concentration in the assay was 0.9% (v/v). The effect of the compound on the enzymatic activity was obtained from the linear part of the progress curves and determined after 1 hour (t=60 min). The IC50 value was calculated from the plot of percentage of inhibition vs. inhibitor concentration by a logistics fit according to the following equation:
where y is the %-inhibition at the inhibitor concentration, x. A1 is the lowest inhibition value, i.e. 0%, and A2 the maximum inhibition value, i.e. 100%. The exponent, p, is the Hill coefficient. The curve fitting was conducted with the non-linear regression routine of the analysis software Origin 7.5SR6 (Origin Lab Corporation).
For `Cc1cc(N)nc(C)c1CNC(=O)c1cc2ccccc2[nH]1` [Example 5, N-((6-amino-2,4-dimethylpyridin-3-yl)methyl)-1H-indole-2-carboxamide], the pIC50 is 5.42.

`CCc1cc2c(NCc3c(C)cc(N)nc3C)ncnc2s1` [Example 1, N-((6-amino-2,4-dimethylpyridin-3-yl)methyl)-6-ethylthieno[2,3-d]pyrimidin-4-amine] had a pIC50 of 4.57.

The compound `Cc1cc(N)nc(C)c1CNC(=O)c1cc2ccccc2o1` [Example 2, N-((6-amino-2,4-dimethylpyridin-3-yl)methyl)benzofuran-2-carboxamide] had a pIC50 of 5.33.

Compound `Cc1cc(N)nc(C)c1CNC(=O)c1ccc2ccccc2c1` [Example 6, N-((6-amino-2,4-dimethylpyridin-3-yl)methyl)-2-naphthamide] showed a pIC50 of 5.64.

In turn, `Cc1cc(N)nc(C)c1CNc1ncnc2oc(Cc3c(Cl)cccc3Cl)nc12` [Example 4, N-((6-amino-2,4-dimethylpyridin-3-yl)methyl)-2-(2,6-dichlorobenzyl) oxazolo[5,4-d]pyrimidin-7-amine] had a pIC50 of 5.75.

Turning to `Cc1cc(N)nc(C)c1CNC(=O)c1cc2ccccc2s1` [Example 3, N-((6-amino-2,4-dimethylpyridin-3-yl)methyl)benzo[b]thiophene-2-carboxamide], the pIC50 is 5.27.

Compound `Cc1cc(N)nc(C)c1CNc1ncc2ccn(Cc3ccc4ccccc4c3)c2n1` [Example 7, N-((6-amino-2,4-dimethylpyridin-3-yl)methyl)-7-(naphthalen-2-ylmethyl)-7H-pyrrolo[2,3-d]pyrimidin-2-amine] showed a pIC50 of 5.79.

The same assay, now with this note: the above-described assay (human plasma kallikrein).
`Cc1cc(N)nc(C)c1CNc1ncnc2c1ccn2C` [N-((6-amino-2,4-dimethyl-pyridin-3-yl)-methyl)-9-methyl-2,4,9-triaza-bicyclo[4.3.0]nona-1(6),2,4,7-tetraen-5-amine] gave a pIC50 of less than 4.52.

In the case of `COc1cc2ncnc(NCc3c(C)cc(N)nc3C)c2cc1OC` [N-((6-amino-2,4-dimethyl-pyridin-3-yl)-methyl)-8,9-dimethoxy-2,4-diaza-bicyclo[4.4.0]deca-1(6),2,4,7,9-pentaen-5-amine], the pIC50 is less than 4.52.
